Values after ≈ are worked out from the molar mass of the structure shown. Read-outs that look alike come from different tables or passages of the source. Starred links: 1 amine or outer side, 2 acyl side, 3 side chain; linkers in the order of their positions; H or OH if unused. Positions of bridges follow the written chain, without caps; N, C: chain ends. Residues, ends and D or L forms follow the SMILES beside them. *: point of attachment. C18 diacid = O=C(O)CCCCCCCCCCCCCCCCC(=O)*; γGlu = O=C(O)[C@H](CCC(=O)[*:2])N[*:1]; AEEA = NCCOCCOCC(=O)O

The target of data set [1] is T1, human natriuretic peptide receptor 2 (hNPR2) (Homo sapiens, UniProt P20594).
T1 construct: expressed in transfected cells; host or cells: HEK293 (ATCC CRL-1573), clone 35, co-transfected with pGloSensor-42F
T1 sequence (P20594 23-1047): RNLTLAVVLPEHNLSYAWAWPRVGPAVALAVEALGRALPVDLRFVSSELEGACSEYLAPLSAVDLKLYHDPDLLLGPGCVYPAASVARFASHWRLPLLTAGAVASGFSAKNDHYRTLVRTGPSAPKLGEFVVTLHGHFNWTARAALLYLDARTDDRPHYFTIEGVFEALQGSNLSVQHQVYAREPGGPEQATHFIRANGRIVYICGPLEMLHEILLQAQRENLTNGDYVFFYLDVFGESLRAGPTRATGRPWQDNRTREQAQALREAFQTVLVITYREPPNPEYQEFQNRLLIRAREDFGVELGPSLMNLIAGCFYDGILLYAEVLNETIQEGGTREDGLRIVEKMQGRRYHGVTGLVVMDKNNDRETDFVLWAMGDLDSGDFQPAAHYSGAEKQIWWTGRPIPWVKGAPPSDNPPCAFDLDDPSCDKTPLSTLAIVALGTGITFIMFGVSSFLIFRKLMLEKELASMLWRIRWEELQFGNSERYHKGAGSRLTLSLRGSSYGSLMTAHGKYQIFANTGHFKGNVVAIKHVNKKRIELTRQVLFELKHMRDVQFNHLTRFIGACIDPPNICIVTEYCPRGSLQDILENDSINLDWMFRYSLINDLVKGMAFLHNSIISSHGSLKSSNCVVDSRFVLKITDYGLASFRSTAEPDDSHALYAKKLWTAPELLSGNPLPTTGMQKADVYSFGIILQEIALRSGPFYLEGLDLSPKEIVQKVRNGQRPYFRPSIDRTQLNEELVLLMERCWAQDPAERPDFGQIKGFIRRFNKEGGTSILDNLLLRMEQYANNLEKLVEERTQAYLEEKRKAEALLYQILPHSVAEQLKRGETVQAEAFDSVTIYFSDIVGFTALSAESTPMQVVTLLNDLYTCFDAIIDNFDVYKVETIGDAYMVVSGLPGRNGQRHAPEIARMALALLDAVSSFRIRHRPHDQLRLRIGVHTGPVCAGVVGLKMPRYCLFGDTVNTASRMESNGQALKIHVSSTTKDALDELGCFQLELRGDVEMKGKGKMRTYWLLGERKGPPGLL
The experiment in a line: In vitro hNPR2 activity assay (cGMP GloSensor reporter, HEK293). Type of data set: cell-based. Particulars: potency relative to CNP22 (0065). In a few lines:
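Potency is the EC50 from a four-parameter logistic fit, also expressed relative to the in-plate CNP22 control (×100), with at least two replicates. Compounds (ten concentrations, […], HSA-free diluent with 1% OVA, 0.01% Tween20) were incubated 30 min at 37 °C on HEK293 cells co-expressing hNPR2 and a GloSensor cGMP luciferase. Luminescence detected with Bright-Glo.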

Data set [2] in a line: Solubility of CNP compounds at pH 4.0 and pH 6.5. Type of data set: physicochemical. In a few lines:
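Supernatant peptide concentration was quantified by CAD after overnight room-temperature equilibration of incompletely dissolved samples. Nominal loading was ≥4000-5000 nmol/mL. Media were pH 4.0 sodium acetate 5 mM/glycerol 250 mM, or pH 6.5 sodium phosphate 8 mM/glycerol 23 mg/mL reached by stepwise NaOH addition.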

Setting [3] is: 8 mM sodium phosphate, 23 mg/mL glycerol, pH 6.5, room temperature, read-out: Solubility at pH 6.5.
The mark [4] stands for this setting: 5 mM sodium acetate, 250 mM glycerol, pH 4.0, room temperature, read-out: Solubility at pH 4.0.

As to `CC[C@H](C)[C@@H]1NC(=O)[C@H](CCCNC(=N)N)NC(=O)[C@H](CC(=O)O)NC(=O)[C@H](CC(C)C)NC(=O)[C@@H]2CCCN2C(=O)[C@H](CC(C)C)NC(=O)CNC(=O)[C@H](Cc2ccccc2)NC(=O)[C@@H](NC(=O)CNC(=O)[C@H](CO)NC(=O)[C@H](CO)NC(=O)[C@H](CC(C)C)NC(=O)CNC(=O)[C@H](CCCCN)NC(=O)[C@H](CCCCN)NC(=O)[C@H](CCC(N)=O)NC(=O)[C@H](C)NC(=O)CNC(=O)[C@H](CCC(=O)O)NC(=O)[C@H](Cc2ccc(O)cc2)NC(=O)[C@H](CO)NC(=O)[C@H](CCCNC(=N)N)NC(=O)[C@H](C)NC(=O)[C@H](CCC(N)=O)NC(=O)[C@@H]2CCCN2C(=O)[C@H](Cc2c[nH]cn2)NC(=O)[C@H](CCC(=O)O)NC(=O)[C@H](CCC(N)=O)NC(=O)COCCOCCNC(=O)COCCOCCNC(=O)CC[C@H](NC(=O)CCCCCCCCCCCCCCCCC(=O)O)C(=O)O)CSSC[C@@H](C(=O)O)NC(=O)CNC(=O)[C@H](CC(C)C)NC(=O)CNC(=O)[C@H](CO)NC(=O)[C@H](CC(C)C)NC(=O)[C@H](CO)NC(=O)CNC1=O` [compound 1379] ({C18 diacid-γGlu-AEEA-AEEA}-QEHPQARSYEGAQKKGLSSGCFGLPLDRIGSLSGLGC-OH; disulfide 21-37; C-terminus assumed), the “hNPR2 0% HSA. [EC50% rel CNP]” value in data set [1] was found to be 33.5%. In data set [2] (setting [3]), the solubility was determined as 2.67 mM (≈ 12.2 mg/mL).
As to `CC[C@H](C)[C@@H]1NC(=O)[C@H](CCCNC(=N)N)NC(=O)[C@H](CC(=O)O)NC(=O)[C@H](CC(C)C)NC(=O)[C@@H]2CCCN2C(=O)[C@H](CC(C)C)NC(=O)CNC(=O)[C@H](Cc2ccccc2)NC(=O)[C@@H](NC(=O)CNC(=O)[C@H](CCC(N)=O)NC(=O)[C@H](CO)NC(=O)[C@H](CO)NC(=O)CNC(=O)[C@H](Cc2c[nH]cn2)NC(=O)[C@H](Cc2c[nH]cn2)NC(=O)[C@H](CCC(N)=O)NC(=O)[C@H](C)NC(=O)CNC(=O)[C@H](Cc2c[nH]cn2)NC(=O)[C@H](Cc2ccc(O)cc2)NC(=O)[C@H](CCCCN)NC(=O)[C@H](Cc2c[nH]cn2)NC(=O)[C@H](C)NC(=O)[C@H](CCC(N)=O)NC(=O)[C@@H]2CCCN2C(=O)[C@H](Cc2c[nH]cn2)NC(=O)[C@H](CCC(=O)O)NC(=O)[C@H](CCC(N)=O)NC(=O)COCCOCCNC(=O)COCCOCCNC(=O)CC[C@H](NC(=O)CCCCCCCCCCCCCCCCC(=O)O)C(=O)O)CSSC[C@@H](C(=O)O)NC(=O)CNC(=O)[C@H](CC(C)C)NC(=O)CNC(=O)[C@H](CO)NC(=O)[C@H](CC(C)C)NC(=O)[C@H](CO)NC(=O)CNC1=O` [compound 1381] ({C18 diacid-γGlu-AEEA-AEEA}-QEHPQAHKYHGAQHHGSSQGCFGLPLDRIGSLSGLGC-OH; disulfide 21-37), the “hNPR2 0% HSA. [EC50% rel CNP]” value in data set [1] worked out at 38.7%. Moreover, the solubility in data set [2] (setting [4]) came out at 9 mM (≈ 41.6 mg/mL).
As to `CC[C@H](C)[C@@H]1NC(=O)[C@H](CCCNC(=N)N)NC(=O)[C@H](CC(=O)O)NC(=O)[C@H](CC(C)C)NC(=O)[C@@H]2CCCN2C(=O)[C@H](CC(C)C)NC(=O)CNC(=O)[C@H](Cc2ccccc2)NC(=O)[C@@H](NC(=O)CNC(=O)[C@H](CCC(N)=O)NC(=O)[C@H](CO)NC(=O)[C@H](CC(C)C)NC(=O)CNC(=O)[C@H](CCCCN)NC(=O)[C@H](CCCCN)NC(=O)[C@H](CCC(N)=O)NC(=O)[C@H](C)NC(=O)CNC(=O)[C@H](CCCCN)NC(=O)[C@H](Cc2ccc(O)cc2)NC(=O)[C@H](CCCCN)NC(=O)[C@H](Cc2c[nH]cn2)NC(=O)[C@H](C)NC(=O)[C@H](CCC(N)=O)NC(=O)[C@@H]2CCCN2C(=O)[C@H](Cc2c[nH]cn2)NC(=O)[C@H](CCC(=O)O)NC(=O)[C@H](CCC(N)=O)NC(=O)COCCOCCNC(=O)COCCOCCNC(=O)CC[C@H](NC(=O)CC[C@H](NC(=O)CC[C@H](NC(=O)CCCCCCCCCCCCCCCCC(=O)O)C(=O)O)C(=O)O)C(=O)O)CSSC[C@@H](C(=O)O)NC(=O)CNC(=O)[C@H](CC(C)C)NC(=O)CNC(=O)[C@H](CO)NC(=O)[C@H](CC(C)C)NC(=O)[C@H](CO)NC(=O)CNC1=O` [compound 1382] ({C18 diacid-γGlu-γGlu-γGlu-AEEA-AEEA}-QEHPQAHKYKGAQKKGLSQGCFGLPLDRIGSLSGLGC-OH; disulfide 21-37), in data set [1], the “hNPR2 0% HSA. [EC50% rel CNP]” value came out at 43.8%. The solubility in data set [2] (setting [3]) was 3.18 mM (≈ 15.5 mg/mL).
Taken in the same sequence, the figures for `CC[C@H](C)[C@@H]1NC(=O)[C@H](CCCNC(=N)N)NC(=O)[C@H](CC(=O)O)NC(=O)[C@H](CC(C)C)NC(=O)[C@@H]2CCCN2C(=O)[C@H](CC(C)C)NC(=O)CNC(=O)[C@H](Cc2ccccc2)NC(=O)[C@@H](NC(=O)CNC(=O)[C@H](CO)NC(=O)[C@H](CO)NC(=O)[C@H](CC(C)C)NC(=O)CNC(=O)[C@H](CCCCN)NC(=O)[C@H](CCCCN)NC(=O)[C@H](CCC(N)=O)NC(=O)[C@H](C)NC(=O)CNC(=O)[C@H](CCCCN)NC(=O)[C@H](Cc2ccc(O)cc2)NC(=O)[C@H](CCCCN)NC(=O)[C@H](CCCNC(=N)N)NC(=O)[C@H](C)NC(=O)CC[C@H](NC(=O)CC[C@H](NC(=O)CC[C@H](NC(=O)CC[C@H](NC(=O)CCCCCCCCCCCCCCCCC(=O)O)C(=O)O)C(=O)O)C(=O)O)C(=O)O)CSSC[C@@H](C(=O)O)NC(=O)CNC(=O)[C@H](CC(C)C)NC(=O)CNC(=O)[C@H](CO)NC(=O)[C@H](CC(C)C)NC(=O)[C@H](CO)NC(=O)CNC1=O` [compound 1386] ({C18 diacid-γGlu-γGlu-γGlu-γGlu}-ARKYKGAQKKGLSSGCFGLPLDRIGSLSGLGC-OH; disulfide 16-32) were 36.9% and 0.49 mM (≈ 2 mg/mL).
As to `CC[C@H](C)[C@@H]1NC(=O)[C@H](CCCNC(=N)N)NC(=O)[C@H](CC(=O)O)NC(=O)[C@H](CC(C)C)NC(=O)[C@@H]2CCCN2C(=O)[C@H](CC(C)C)NC(=O)CNC(=O)[C@H](Cc2ccccc2)NC(=O)[C@@H](NC(=O)CNC(=O)[C@H](CO)NC(=O)[C@H](CO)NC(=O)[C@H](CC(C)C)NC(=O)CNC(=O)[C@H](CCCCN)NC(=O)[C@H](CCCCN)NC(=O)[C@H](CCC(N)=O)NC(=O)[C@H](C)NC(=O)CNC(=O)[C@H](CCCCN)NC(=O)[C@H](Cc2ccc(O)cc2)NC(=O)[C@H](CCCCN)NC(=O)[C@H](CCCNC(=N)N)NC(=O)[C@H](C)NC(=O)[C@H](CCC(N)=O)NC(=O)[C@@H]2CCCN2C(=O)[C@H](Cc2c[nH]cn2)NC(=O)[C@H](CCC(=O)O)NC(=O)[C@H](CCC(N)=O)NC(=O)CC[C@H](NC(=O)CC[C@H](NC(=O)CC[C@H](NC(=O)CC[C@H](NC(=O)CCCCCCCCCCCCCCCCC(=O)O)C(=O)O)C(=O)O)C(=O)O)C(=O)O)CSSC[C@@H](C(=O)O)NC(=O)CNC(=O)[C@H](CC(C)C)NC(=O)CNC(=O)[C@H](CO)NC(=O)[C@H](CC(C)C)NC(=O)[C@H](CO)NC(=O)CNC1=O` [compound 1389] ({C18 diacid-γGlu-γGlu-γGlu-γGlu}-QEHPQARKYKGAQKKGLSSGCFGLPLDRIGSLSGLGC-OH; disulfide 21-37), the “hNPR2 0% HSA. [EC50% rel CNP]” value in data set [1] was found to be 52.3%. Also, the solubility in data set [2] (setting [4]) stood at 8.9 mM (≈ 41.8 mg/mL); in data set [2] (setting [3]), 0.426 mM (≈ 2 mg/mL).
For `CC[C@H](C)[C@@H]1NC(=O)[C@H](CCCNC(=N)N)NC(=O)[C@H](CC(=O)O)NC(=O)[C@H](CC(C)C)NC(=O)[C@@H]2CCCN2C(=O)[C@H](CC(C)C)NC(=O)CNC(=O)[C@H](Cc2ccccc2)NC(=O)[C@@H](NC(=O)CNC(=O)[C@H](CO)NC(=O)[C@H](CO)NC(=O)[C@H](CC(C)C)NC(=O)CNC(=O)[C@H](CCCCN)NC(=O)[C@H](CCCCN)NC(=O)[C@H](CCC(N)=O)NC(=O)[C@H](C)NC(=O)CNC(=O)[C@H](CCC(=O)O)NC(=O)[C@H](Cc2ccc(O)cc2)NC(=O)COCCOCCNC(=O)COCCOCCNC(=O)COCCOCCNC(=O)COCCOCCNC(=O)CC[C@H](NC(=O)CCCCCCCCCCCCCCCCC(=O)O)C(=O)O)CSSC[C@@H](C(=O)O)NC(=O)CNC(=O)[C@H](CC(C)C)NC(=O)CNC(=O)[C@H](CO)NC(=O)[C@H](CC(C)C)NC(=O)[C@H](CO)NC(=O)CNC1=O` [compound 1392] ({C18 diacid-γGlu-AEEA-AEEA-AEEA-AEEA}-YEGAQKKGLSSGCFGLPLDRIGSLSGLGC-OH; disulfide 13-29), the “hNPR2 0% HSA. [EC50% rel CNP]” value in data set [1] was 29.5%. In data set [2] (setting [3]), the solubility came out at 9.88 mM (≈ 38.7 mg/mL).

For the origin of these results see US20240209028A1, “CNP COMPOUNDS” (priority 2022, published 2024).
